Patent EP4624454A1, “NON-COVALENT DIMER CATION, AND SALT THEREOF, PREPARATION METHOD THEREFOR AND USE THEREOF” (Suzhou Protonation Chain Biotechnology Co., Ltd, priority 2022, dated 2024)

Columns and labels:
[1] = test system: GES-1 human gastric mucosal epithelial cells; assay: cells; type: cell-based; details: GES1, 24 h, read-out: Cell viability (%)
Description: Long-term alcoholics were prone to gastric mucosal damage due to long-term alcohol damage.
A blank control group (without ethanol) and a model group (with ethanol but without the salt or glycyrrhetinic acid in the examples) were set.
The cells were cultured in a complete RPMI 1640 medium for 6 h.
Then, the cell viability was detected. […] Table 2 Cell viability of ethanol-induced damage models of gastric mucosal epithelial cells

[2] = test system: SH-SY5Y human neuroblastoma cells; assay: Parkinson's disease cell model (6-OHDA), cell viability; details: 24 h, read-out: Cell viability (%)
Description: A blank control group (without 6-OHDA) and a model group (with 6-OHDA but without the salt of this example or selegiline) were set.
SH-SY5Y human neuroblastoma cells were uniformly inoculated into a 96-well plate, about 5,000 cells per well. The cells were cultured in a complete DMEM/F12 medium for 6 h. After the cells were completely adhered to the wall, all the media were removed, 100 µL of serum-free DMEM/F12 medium, i.e., a cell culture solution, containing 150 µmol/L of 6-OHDA (a serum-free DMEM/F12 medium without 6-OHDA was added to the blank group), was added to each well, and the cells were incubated and cultured for 24 h.
Then, all the media were removed again, 100 µL of each of serum-free DMEM/ F12 media, i.e., cell culture solutions, containing 0.025 g/mL, 0.05 g/mL, 0.1 g/mL, 0.2 g/mL, 0.4 g/mL and 0.8 g/mL of compound of experimental or control groups (a serum-free DMEM/ F12 medium without compound of experimental or control groups was added to the blank group and a model group) were added to each well according to the groups, and the cells were cultured in a cell culture solution for 24 h.

SMILES | viability at 25 µg/mL [1] | viability at 50 µg/mL [1] | viability at 100 µg/mL [1] | viability at 200 µg/mL [1] | viability at 400 µg/mL [1] | viability at 800 µg/mL [1] | viability at 25 µg/mL [2] | viability at 50 µg/mL [2] | viability at 100 µg/mL [2] | viability at 200 µg/mL [2] | viability at 400 µg/mL [2] | viability at 800 µg/mL [2]
CC1(C)[C@@H](O)CC[C@]2(C)[C@H]3C(=O)C=C4[C@@H]5C[C@@](C)(C(=O)O)CC[C@]5(C)CC[C@@]4(C)[C@]3(C)CC[C@@H]12 [Glycyrrhetinic acid, glycyrrhetinic acid] | 59.4% | 61.8% | 64.3% | 65.2% | 68.9% | 71.9% |  |  |  |  |  | 
C#CCN(C)[C@H](C)Cc1ccccc1 [Selegiline, selegiline] |  |  |  |  |  |  | 33.4% | 37.5% | 43.3% | 49.9% | 58.5% | 69.8%
